Test results from patent publication EP4745117A1, “NOVEL INDENONE DERIVATIVE AND USE THEREOF” (Amyloid Solution Inc., priority 2023, dated 2025).

What was measured:
Aβ1-42 = molecular target: T1, Aβ1-42 (Homo sapiens, UniProt P05067); test: Amyloid-beta disaggregation test by Thioflavin-T analysis; type: biochemical; details: for EC50: Aβ1-42 50 µM aggregated 24 hours, then compound 0 - 500 µM for 48 hours at 37 °C, concentration disaggregating 50 % of aggregates vs control, read-out: EC50 (µM) Aβ; for disaggregation effect for amyloid-beta protein aggregates: statement in words summarising the Thioflavin-T results
T1 construct: dissolving Aβ1-42 or Tau-RD3 (Tau repeat domain 3) monomers in DMSO
Method in brief: (§1)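 Aβ1-42 (50 µM) or Tau-RD3 (35 µM) pre-aggregated 24 h at 37 °C, then incubated with compound (500 µM down to 0 µM, serial dilution) for 48 h at 37 °C. Read-out by Thioflavin-T (5 µM solution, glycine buffer pH 8.5) fluorescence, ex 450/em 485 nm. Values expressed relative to 72 h aggregated protein-only control (100%).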

[1] = system: amyloid-beta oligomers in HEK293 cells transfected with the APP E693Δ mutant plasmid; test: Amyloid-beta oligomer change by dot blot (A11 antibody) in an amyloid-beta oligomer-overexpressing cell line; type: cell-based; details: compound 10 µM, 48 hours, dot blot of cell lysate, relative to control group (FIG. 1)
Text: To observe the change in intracellular amyloid-beta oligomers, a plasmid with the APP E693Δ (Osaka mutation) mutant, which is associated with early-onset Alzheimer's disease and is known to induce intracellular amyloid-beta oligomer formation, was obtained from GenScript. This plasmid was transfected into HEK293 cells using a liposome-mediated method (Lipofectamine) to prepare a cell line that overexpresses intracellular amyloid-beta oligomers.
HEK293 cells transfected with the APP E693Δ mutant plasmid were incubated for 48 hours in a 37 °C, 5 % CO2 incubator, and then treated with the compounds prepared in 1.1, which were diluted to a concentration of 10 µM in the cell culture medium. The untransfected control group was treated with 0.1 % DMSO, the same as the compound-treated group.
The compound-treated cell lines were again incubated for 48 hours in a 37 °C, 5 % CO2 incubator and then used in the experiment.
After incubating the control and compound-treated cells from Example 2.2, a dot blot was performed using the cell lysate. A 3.5 µg sample was spotted onto a nitrocellulose membrane and air-dried, and then the membrane to which the sample was adhered was blocked with 5 % skim milk. After incubating with the amyloid oligomer antibody A11 to allow binding, the membrane was washed 4 times with TBST, and the secondary antibody was bound. The image signal was measured using a chemiluminescent substrate.
It was confirmed that the amount of amyloid-beta oligomers was reduced by each compound treatment compared to the control group.

[2] = molecular target: Tau-RD3 (Tau repeat domain 3) (Homo sapiens, UniProt P10636); test: Tau disaggregation test by Thioflavin-T analysis; type: biochemical; details: for EC50: Tau-RD3 35 µM aggregated 24 hours, then compound 0 - 500 µM for 48 hours at 37 °C, concentration disaggregating 50 % of aggregates vs control, read-out: EC50 (µM) Tau; for disaggregation effect for tau protein aggregates: statement in words summarising the Thioflavin-T results
Method in brief: as §1

Chain of Tau-RD3 (Tau repeat domain 3) (P10636 623-653 limits assumed): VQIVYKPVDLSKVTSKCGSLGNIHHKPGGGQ
T1 sequence (P05067 672-713 limits assumed): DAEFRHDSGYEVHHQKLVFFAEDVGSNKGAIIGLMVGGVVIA

Row | SMILES | EC50 (Aβ1-42) [µM] | disaggregation effect for amyloid-beta protein aggregates (Aβ1-42) | amyloid-beta oligomer reduction effect [1] | EC50 [2] [µM] | disaggregation effect for tau protein aggregates [2]
1 | CN1CCN(c2ccc(C3=C(c4ccccc4)c4ccccc4C3=O)cc2)CC1 [Compound 90, 2-(4-(4-methylpiperazin-1-yl)phenyl)-3-phenyl-1H-inden-1-one] | < 20 | remarkably excellent disaggregation effect | reduction effect | < 20 | remarkably excellent disaggregation effect
2 | Cc1cccc(C)c1C1=C(c2ccccc2)C(=O)c2cc(N3CCN(C)CC3)ccc21 [Compound 72, 3-(2,6-dimethylphenyl)-6-(4-methylpiperazin-1-yl)-2-phenyl-1H-inden-1-one] | < 20 | remarkably excellent disaggregation effect | reduction effect | < 20 | remarkably excellent disaggregation effect
3 | Cc1ncsc1C1=C(c2ccc(N3CCN(C)CC3)cc2)C(=O)c2cc(Cl)ccc21 [Compound 74-7, 6-chloro-2-(4-(4-methylpiperazin-1-yl)phenyl)-3-(4-methylthiazol-5-yl)-1H-inden-1-one] | < 20 | remarkably excellent disaggregation effect | reduction effect | < 20 | remarkably excellent disaggregation effect
4 | Cc1ncsc1C1=C(c2ccc(N3CCN(C)CC3)cc2)C(=O)c2cc(N3CCN(C)CC3)ccc21 [Compound 75, 6-(4-methylpiperazin-1-yl)-2-(4-(4-methylpiperazin-1-yl)phenyl)-3-(4-methylthiazol-5-yl)-1H-inden-1-one] | < 20 | – | reduction effect | < 20 | –
5 | Cc1ncsc1C1=C(c2cnn(C3CCN(C)CC3)c2)C(=O)c2cc(OCCCc3ccccc3)ccc21 [Compound 30, 2-(1-(1-methylpiperidin-4-yl)-1H-pyrazol-4-yl)-3-(4-methylthiazol-5-yl)-6-(3-phenylpropoxy)-1H-inden-1-one] | < 20 | – | reduction effect | < 20 | –
6 | CN1CCN(c2ccc3c(c2)C(=O)C(c2ccccc2)=C3c2ccccc2)CC1 [Compound 13, 6-(4-methylpiperazin-1-yl)-2,3-diphenyl-1H-inden-1-one] | < 20 | remarkably excellent disaggregation effect | reduction effect | < 20 | remarkably excellent disaggregation effect
7 | Cc1ncsc1C1=C(c2ccc(N3CCN(C)CC3)cc2)C(=O)c2cc(N3CCN(CCO)CC3)ccc21 [Compound 74, 6-(4-(2-hydroxyethyl)piperazin-1-yl)-2-(4-(4-methylpiperazin-1-yl)phenyl)-3-(4-methylthiazol-5-yl)-1H-inden-1-one] | < 20 | – | reduction effect | < 20 | –
8 | O=C1C(c2ccccc2)=C(c2ccccc2)c2ccc(N3CCN(CCO)CC3)cc21 [Compound 70, 6-(4-(2-hydroxyethyl)piperazin-1-yl)-2,3-diphenyl-1H-inden-1-one] | < 20 | remarkably excellent disaggregation effect | reduction effect | < 20 | remarkably excellent disaggregation effect
9 | Cc1ncsc1C1=C(c2cccnc2)C(=O)c2cc(NC3CC3)ccc21 [Compound 63, 6-(cyclopropylamino)-3-(4-methylthiazol-5-yl)-2-(pyridin-3-yl)-1H-inden-1-one] | < 20 | remarkably excellent disaggregation effect | reduction effect | < 20 | remarkably excellent disaggregation effect
10 | Cc1ncsc1C1=C(c2cccnc2)C(=O)c2cc(N(C)CCCc3ccccc3)ccc21 [Compound 65, 6-(methyl(3-phenylpropyl)amino)-3-(4-methylthiazol-5-yl)-2-(pyridin-3-yl)-1H-inden-1-one] | – | remarkably excellent disaggregation effect | reduction effect | < 20 | remarkably excellent disaggregation effect
11 | COc1cccc(OC)c1C1=C(c2cccnc2)C(=O)c2cc(O)ccc21 [Compound 45-8, 3-(2,6-dimethoxyphenyl)-6-hydroxy-2-(pyridin-3-yl)-1H-inden-1-one] | 100 to 250 | – | – | > 250 | –
12 | Cc1ncsc1C1=C(c2ccc(CN3CCN(C)CC3)cc2)C(=O)c2ccccc21 [Compound 86, 2-(4-((4-methylpiperazin-1-yl)methyl)phenyl)-3-(4-methylthiazol-5-yl)-1H-inden-1-one] | 20 to 100 | – | – | < 20 | –
